Data reported in ChEMBL document CHEMBL1201862, “PubChem BioAssay data set” (2004).
Activity calls are given as the source filed them.

Assays:
[1] = molecular target: Glyceraldehyde-3-phosphate dehydrogenase (Homo sapiens, UniProt P04406)
[2] = molecular target: T1, Microphthalmia-associated transcription factor (Homo sapiens, UniProt O75030); experiment: reducers of TRPM1 reporter luminescence, concentration series – cell-based, SK-MEL-5, cherry-picked, set 3, MITF inhibitor project, dose response (AID 493073); format: functional;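 also: SK-MEL-5 melanoma cells with luciferase driven by the MITF target TRPM1 promoter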
T1 sequence (O75030 whole entry): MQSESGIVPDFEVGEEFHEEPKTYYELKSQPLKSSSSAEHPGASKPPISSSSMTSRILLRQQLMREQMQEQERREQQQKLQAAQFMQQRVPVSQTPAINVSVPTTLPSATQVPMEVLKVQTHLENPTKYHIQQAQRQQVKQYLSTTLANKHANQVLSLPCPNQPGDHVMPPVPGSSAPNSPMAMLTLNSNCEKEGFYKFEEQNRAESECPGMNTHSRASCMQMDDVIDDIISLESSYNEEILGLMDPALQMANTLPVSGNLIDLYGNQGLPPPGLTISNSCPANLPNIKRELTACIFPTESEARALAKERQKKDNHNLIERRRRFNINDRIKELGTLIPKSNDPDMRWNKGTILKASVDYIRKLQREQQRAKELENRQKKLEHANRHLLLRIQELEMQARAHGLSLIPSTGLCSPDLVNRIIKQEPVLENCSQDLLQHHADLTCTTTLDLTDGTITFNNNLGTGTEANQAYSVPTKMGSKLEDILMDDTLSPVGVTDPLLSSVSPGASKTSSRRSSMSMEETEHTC

[3] = molecular target: T2, Carboxy-terminal domain RNA polymerase II polypeptide A small phosphatase 1 (Homo sapiens, UniProt Q9GZU7); experiment: CTDSP1 inhibitors, concentration-response, biochemical, absorbance readout, ultra-high-throughput screen actives (AID 540297); format: functional
T2 sequence (Q9GZU7 whole entry): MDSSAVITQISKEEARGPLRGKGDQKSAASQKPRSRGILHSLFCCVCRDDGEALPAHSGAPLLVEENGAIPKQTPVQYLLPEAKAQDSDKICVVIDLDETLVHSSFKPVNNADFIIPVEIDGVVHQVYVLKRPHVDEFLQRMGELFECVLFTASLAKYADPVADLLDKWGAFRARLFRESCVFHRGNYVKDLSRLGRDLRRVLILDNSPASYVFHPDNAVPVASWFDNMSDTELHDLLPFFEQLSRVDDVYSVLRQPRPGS

[4] = Luminescence Cell-Based Dose Retest to Confirm Inhibitors of Cancer Stem Cells. [Related pubchem assays (depositor defined):AID2717, AID2721]; format: functional; settings: Homo sapiens
[5] = HEK-293T viability loss after treatment – luminescence, T-cell screen hits, cytotoxicity control for TCR NF-kB inhibitor project, dose response (AID 489026); format: functional, cell-based;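 also: cells exposed to compound about 14 hours before the viability readout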
[6] = Luminescence Cell-Based Dose Confirmation HTS to Identify Activators of 5'UTR Stem-Loop Driven Alpha-Synuclein mRNA Translation in H4 Neuroglioblastoma Cells. [Related pubchem assays: 1829 (Project Summary), 1814 (Primary HTS)]; format: functional
[7] = Luminescence Cell-Based Dose Response HTS to Identify Activators of Luciferase Translation or Activity in H4 […] Cells. [Related pubchem assays: 1829 (Project Summary), 1814 (Primary HTS)]; format: functional
H4 = experiment: Luminescence Cell-Based Dose Response HTS to Identify Activators of 5'UTR Stem-Loop Driven Prion Protein mRNA Translation in H4 Neuroglioblastoma Cells. [Related pubchem assays: 1829 (Project Summary), 1814 (Primary HTS)]; format: functional; settings: Homo sapiens
[8] = P. falciparum Dd2 growth inhibitors, dose response, SYBR Green, cherry-picked samples (AID 1159567); format: functional, cell-based
Cytochrome P450 2C9 = Cytochrome P450 2C9 (Homo sapiens, UniProt P11712)
H9c2 = experiment: cells; format: functional, cell-based; settings: Rattus norvegicus, H9c2, Myocardium;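 also: confirmatory concentration-response retest of ultra-high-throughput screening hits for modulation of myocardial damage; cell death induced by hydrogen peroxide oxidative stress; compound pretreatment for 60 min then peroxide exposure for 2 h; potency is for protecting the cells against peroxide damage rather than for killing them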
[9] = Trypanosoma cruzi growth suppression in host cells – NIH3T3 host cells, beta-gal luminescence, confirmation (AID 2044); format: functional, cell-based;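 also: intracellular parasites grown in NIH/3T3 mouse fibroblasts as host cells; luminescent beta-galactosidase reporter signal from transgenic T. cruzi replicating inside host cells; inhibitors lower the luminescence signal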
[10] = NIH3T3 cell viability loss – ATP luminescence, mouse fibroblasts, counter-screen, dose response (AID 2010); format: functional, cell-based;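 also: cells exposed to compound for about 90 hours before reading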
[11] = reduction of Shn3 3'UTR-driven luciferase in osteoblasts – cell-based, Clone20 osteoblasts, firefly luciferase, cherry-picked, dose response (AID 624132); format: functional;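 also: firefly luciferase luminescence from reporter carrying the Shn3 3'UTR in osteoblasts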
[12] = loss of viability in HepG2 cells – cell-based, CellTiter-Glo, cherry-picked, cytotoxicity control for Shn3 inhibitor project, dose response (AID 624134); format: functional
[13] = non-specific 3'UTR reporter inhibition in Clone20-Shn3RL – cell-based, Renilla luciferase, cherry-picked, counter-screen for Shn3 inhibitor project, dose response (AID 624133); format: functional
[14] = Vero E6 cell cytotoxicity, dose response, cytotoxicity control for non-replicating M. tuberculosis project, secondary assay (AID 492998); format: functional, VeroE6; settings: Vero C1008
cells = format: functional
[15] = molecular target: T3, Rac GTPase-activating protein 1 (Homo sapiens, UniProt Q9H0H5); experiment: blockers of MgcRacGAP-driven Rac1 GTP hydrolysis – biochemical, ADP Hunter fluorescence, primary and confirmatory, confirmation (AID 624330); format: functional
T3 sequence (Q9H0H5 whole entry): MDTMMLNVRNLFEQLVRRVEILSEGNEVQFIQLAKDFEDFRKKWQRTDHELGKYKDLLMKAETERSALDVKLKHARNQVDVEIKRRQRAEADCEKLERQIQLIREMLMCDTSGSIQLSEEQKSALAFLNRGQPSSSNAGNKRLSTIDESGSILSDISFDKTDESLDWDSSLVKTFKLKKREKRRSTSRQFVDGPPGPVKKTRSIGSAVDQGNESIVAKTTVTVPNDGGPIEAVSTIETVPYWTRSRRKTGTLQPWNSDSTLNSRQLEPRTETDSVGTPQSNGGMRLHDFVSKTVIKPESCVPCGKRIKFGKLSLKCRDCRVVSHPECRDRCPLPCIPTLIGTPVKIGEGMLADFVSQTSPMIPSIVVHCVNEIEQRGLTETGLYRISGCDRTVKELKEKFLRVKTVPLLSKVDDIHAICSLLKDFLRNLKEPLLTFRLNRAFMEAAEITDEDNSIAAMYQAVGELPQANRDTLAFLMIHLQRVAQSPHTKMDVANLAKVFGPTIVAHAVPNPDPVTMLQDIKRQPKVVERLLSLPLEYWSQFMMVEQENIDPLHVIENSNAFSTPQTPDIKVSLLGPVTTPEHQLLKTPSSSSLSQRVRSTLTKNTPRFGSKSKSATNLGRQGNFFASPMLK

[16] = molecular target: T4, Histone-lysine N-methyltransferase NSD2 (Homo sapiens, UniProt O96028); format: biochemical
T4 sequence (O96028 whole entry): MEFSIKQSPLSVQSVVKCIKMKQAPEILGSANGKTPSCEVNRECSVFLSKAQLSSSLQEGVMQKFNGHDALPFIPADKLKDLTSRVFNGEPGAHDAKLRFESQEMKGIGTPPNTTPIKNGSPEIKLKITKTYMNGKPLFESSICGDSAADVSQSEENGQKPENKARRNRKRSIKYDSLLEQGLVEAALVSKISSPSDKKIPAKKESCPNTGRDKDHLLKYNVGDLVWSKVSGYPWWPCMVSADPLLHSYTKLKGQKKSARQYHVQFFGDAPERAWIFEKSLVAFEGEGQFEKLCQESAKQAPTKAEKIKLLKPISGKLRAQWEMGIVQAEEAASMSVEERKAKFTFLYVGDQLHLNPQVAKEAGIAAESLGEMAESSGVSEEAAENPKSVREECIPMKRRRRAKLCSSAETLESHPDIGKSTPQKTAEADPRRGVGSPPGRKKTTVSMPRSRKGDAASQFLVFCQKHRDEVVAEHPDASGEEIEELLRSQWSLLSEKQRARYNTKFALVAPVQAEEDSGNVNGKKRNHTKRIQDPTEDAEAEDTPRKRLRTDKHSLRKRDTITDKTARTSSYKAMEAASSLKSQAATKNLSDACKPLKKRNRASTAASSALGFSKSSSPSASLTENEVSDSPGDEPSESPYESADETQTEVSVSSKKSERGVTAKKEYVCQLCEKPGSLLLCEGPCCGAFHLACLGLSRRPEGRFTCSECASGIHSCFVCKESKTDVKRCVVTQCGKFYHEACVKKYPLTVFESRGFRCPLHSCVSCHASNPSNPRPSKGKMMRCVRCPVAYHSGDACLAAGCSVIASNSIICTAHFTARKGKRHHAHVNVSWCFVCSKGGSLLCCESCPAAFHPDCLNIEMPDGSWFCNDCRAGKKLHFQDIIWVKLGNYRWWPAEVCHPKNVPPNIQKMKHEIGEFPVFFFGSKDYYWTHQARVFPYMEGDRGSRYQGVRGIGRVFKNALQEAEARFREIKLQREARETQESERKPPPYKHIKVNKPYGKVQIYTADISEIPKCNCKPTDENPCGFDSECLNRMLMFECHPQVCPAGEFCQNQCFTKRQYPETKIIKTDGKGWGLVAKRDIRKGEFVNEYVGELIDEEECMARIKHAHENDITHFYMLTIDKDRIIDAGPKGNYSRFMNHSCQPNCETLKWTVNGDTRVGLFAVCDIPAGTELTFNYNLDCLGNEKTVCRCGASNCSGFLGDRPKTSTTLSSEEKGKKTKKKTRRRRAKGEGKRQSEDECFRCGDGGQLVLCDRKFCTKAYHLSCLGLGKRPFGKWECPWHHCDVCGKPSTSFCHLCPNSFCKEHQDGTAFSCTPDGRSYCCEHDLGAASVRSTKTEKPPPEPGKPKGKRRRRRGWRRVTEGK

Sequence of Glyceraldehyde-3-phosphate dehydrogenase (P04406 whole entry): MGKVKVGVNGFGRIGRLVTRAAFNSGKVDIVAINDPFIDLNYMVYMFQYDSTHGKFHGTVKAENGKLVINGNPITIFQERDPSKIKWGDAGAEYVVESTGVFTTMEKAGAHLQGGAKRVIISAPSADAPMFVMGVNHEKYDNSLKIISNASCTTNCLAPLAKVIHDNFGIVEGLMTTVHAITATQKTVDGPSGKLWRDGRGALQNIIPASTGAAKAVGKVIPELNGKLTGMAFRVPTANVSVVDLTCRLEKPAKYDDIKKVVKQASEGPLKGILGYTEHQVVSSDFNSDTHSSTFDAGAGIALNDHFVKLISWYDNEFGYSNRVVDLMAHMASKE
Sequence of Cytochrome P450 2C9 (P11712 whole entry): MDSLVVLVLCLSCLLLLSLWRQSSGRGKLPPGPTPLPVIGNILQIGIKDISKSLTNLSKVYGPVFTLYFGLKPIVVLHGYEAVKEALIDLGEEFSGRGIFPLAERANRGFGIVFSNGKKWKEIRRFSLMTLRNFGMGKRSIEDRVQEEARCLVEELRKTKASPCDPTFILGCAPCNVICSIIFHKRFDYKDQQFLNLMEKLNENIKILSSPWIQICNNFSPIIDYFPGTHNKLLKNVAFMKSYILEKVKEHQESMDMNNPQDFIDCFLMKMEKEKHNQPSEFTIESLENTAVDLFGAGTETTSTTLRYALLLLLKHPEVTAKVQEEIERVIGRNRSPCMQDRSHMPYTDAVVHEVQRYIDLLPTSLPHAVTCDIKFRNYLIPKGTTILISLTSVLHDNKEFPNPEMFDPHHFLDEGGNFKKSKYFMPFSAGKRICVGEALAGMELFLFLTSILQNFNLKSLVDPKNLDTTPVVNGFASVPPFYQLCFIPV

COc1cc(/C=C2/SC(=S)NC2=O)cc(Cl)c1OCc1ccc(Cl)cc1Cl
IC50 [1]: > 100 µM (not active)

CCOC(=O)c1ccc2c(c1)[n+](CC)c(/C=C/N(C)c1ccccc1)n2CC
AC50 [2]: 3.24 µM (active)
IC50 [3]: 4.04 µM (active)

Cc1cc2c(cc1C)C(c1ccccc1OC(C)C)CC(=O)N2 (stereo unspecified)
AC50 [4]: 0.796 µM (active)
IC50 [5]: 62.2 µM (inactive)

Cc1ccc(N2C(=O)c3[nH]nc(C)c3C2c2ccco2)cc1 (stereo unspecified)
EC50 [6]: > 120 µM (not active)
EC50 [7]: 48.5 µM (active)
EC50 (H4): 17.9 µM (inconclusive)

Cc1cccc2cc(/C=C3\N=C(c4ccccc4)OC3=O)c(N(C)C)nc12
IC50 [1]: > 100 µM (not active)

Cc1ccc(S(=O)(=O)N(C)C[C@H]2Oc3ccc(NC(=O)c4ccncc4)cc3C(=O)N([C@@H](C)CO)C[C@@H]2C)cc1
AC50 [8]: 8.41 µM (active)

CC(=O)Nc1nnc(SCc2cccc3ccccc23)[nH]1
IC50 [1]: > 100 µM (not active)

Cn1c(-c2ccc3c(c2)OCO3)cnc1NCc1ccccc1
EC50 [6]: 14.6 µM (active)
EC50 [7]: 6.69 µM (active)
EC50 (H4): 39.9 µM (active)
AC50 (Cytochrome P450 2C9): 31.6 µM (inconclusive)

O=C(CCc1nc(O)c2ccccc2n1)N1CCN(S(=O)(=O)c2cccc([N+](=O)[O-])c2)CC1
IC50 (H9c2): > 79 µM (inactive)

COc1ccc(C)c(Cn2c(-c3nonc3N)nc3ccccc32)c1
IC50 [5]: > 80 µM (inactive)

O=C(Nc1ccc(N2CCN(C(=O)c3ccc(Cl)cc3)CC2)cc1)c1ccc([N+](=O)[O-])o1
EC50 [9]: 1.81 µM (active)
EC50 [10]: 32.8 µM (active)
AC50 [2]: 7.32 µM (active)

CCOc1ccccc1NC(=O)c1oc2ccccc2c1NC(=O)C1CCCO1 (stereo unspecified)
IC50 (H9c2): > 79 µM (inactive)

C=CCNC(=O)c1ccc(OC2CCN(S(=O)(=O)N(C)C)CC2)cc1
EC50 [6]: 16.9 µM (active)
EC50 [7]: 15.2 µM (active)
EC50 (H4): 25.6 µM (active)

CCOC(=O)N1CCC(NC(=O)C2CCCN(Cc3nc(-c4cccc(C)c4)oc3C)C2)CC1 (stereo unspecified)
AC50 [2]: 34.9 µM (active)
AC50 [11]: 3.06 µM (active)
AC50 [12]: 55.6 µM (active)
AC50 [13]: 7.52 µM (active)

Cn1c(=O)c2nc(NN=Cc3ccc(Br)cc3)[nH]c2n(C)c1=O
IC50 (H9c2): > 79 µM (inactive)

COc1cccc(CC(CC(=O)O)C(=O)O)c1 (stereo unspecified)
IC50 [1]: > 100 µM (not active)

Cc1cc(C)c(C)c(S(=O)(=O)N2CCN(C(=O)CCc3nc(O)c4ccccc4n3)CC2)c1C
IC50 (H9c2): > 79 µM (inactive)

c1ccc(-c2nn3c(-c4ccco4)nnc3s2)nc1
IC50 (H9c2): 12.8 µM (active)

CC(C)N1C(=O)CC(Nc2ccc(N3CCOCC3)cc2)C1=O (stereo unspecified)
EC50 [6]: > 120 µM (not active)
EC50 [7]: 29.1 µM (active)
EC50 (H4): > 120 µM (not active)

C[C+](C)[N-]Oc1cc(NC(=O)CCl)cc([N+](=O)[O-])c1
AC50 [2]: 6.18 µM (active)

Cc1cc(C)n2[nH]c(=O)c(N=Nc3cccc(Cl)c3)c2n1
CC50 [14]: > 20 µM (active)
IC50 (cells): 17.7 µM (active)

COc1cc(C)c(Cl)cc1S(=O)(=O)Nc1cccnc1
IC50 [1]: > 10 µM (inconclusive)

O=C(CSc1ccc(-c2ccccc2)nn1)Nc1ccc2c(c1)OCCO2
EC50 [6]: 7.15 µM (active)
EC50 [7]: 13.1 µM (active)
EC50 (H4): > 120 µM (not active)

N#Cc1ccc(-c2ccc3c(c2)[C@@H]2[C@@H](CCN2C(=O)C2CCC2)[C@@H](CO)N3)cc1
AC50 [8]: 9.93 µM (active)

O=C(NCc1cccs1)C1CCN(c2ccc(S(=O)(=O)N3CCOCC3)cc2Cl)CC1
IC50 [5]: > 80 µM (inactive)

O=[N+]([O-])c1ccccc1Nc1ccc(O)cc1
IC50 [15]: 22.6 µM (active)
AC50 [16]: > 20 µM (inactive)
